According to patent publication EP1206258B1, “COMPOSITIONS CONTAINING ESTERS FOR TREATING PARASITIC INFESTATIONS OF ORGANISMS” (priority 1999, dated 2001):

Columns and labels:
Mouse = conditions: Oral, VPITAR 33(5)48,74; cited from earlier work
Acarus siro = test: further residual filter paper bioassay on grain/flour mite Acarus siro (Table 2b); conditions: for % mortality: ethanol control 24.00
Procedure: A further study was carried out to investigate the effect of Ethyl cinnamate on the grain/flour mite Acarus siro using a residual filter paper bioassay. Mites from a colony grown at 25°C ± 85% RH were removed using a spatular and placed into a petri dish. 275 µ of the cinnamate was placed onto a filter paper in one well of a 6 well (17 ml) cell culture plate and likewise, 275 µ of DH2O was placed on another piece of 4 cm Whatman filter paper in a second well. Mixed instars (male + female) were added to each well. The actual number of instars was unknown in each case, since the test only sought to establish the presence of activity; measured in terms of cidal effect (knockdown). The duration of the test was 5 ± days. Both treatments were incubated at 25°C ± 85% RH and each well was checked 4 times daily. Small amounts of food mix of yeastea 20B and wheat germ in the ratio 3 : 1 were included on the filter paper in both treatments.
The treatment was later modified : 2, 10 cm Whatman filter papers were cut to ø of 3 cm and placed in the mite culture. After 10 minutes they were removed using forceps. The mites were then swept into each well respective of treatment. The cinnamate provided too glutenous (viscous) to be used undiluted. Therefore, it was dissolved using 10 fold dilutions in ethanol. Therefore 30 µ cinnamate : 270 µ ethanol to the extent of 10-4. The control was ethanol.
The above experiment was repeated.

eggs of L.sericata = test: in vitro test on hatching of eggs of L.sericata (immersion); parameters: species or system Lucilia sericata; conditions: V/V in 2.0% W/V aqueous lecithin
Procedure: A series of in vitro tests were carried out to investigate the effects of the compound trans-cinnamic acid ethyl ester on the hatching of eggs of L.sericata.
A blowfly culture originating from the Central Veterinary Laboratory based in Weybridge, Surrey was used for the tests. None of the original adults had previously been exposed or resistant to insecticides. Eggs aged 10±2 hours of the blowfly were harvested on pig's liver in clusters using a prolene 4/0 paintbrush and examined under the binocular microscope for suitablility. Adult females used to produce these eggs were kept at 20°C, rh 70±5%, with a photoperiod of 8 hours. Groups of 30 eggs were then immediately transferred to a 9-cm Whatman filter paper in a 9-cm plastic petri dish. Two ml of cinnamic acid ethyl ester at concentrations in the range 1.0%; 2.5%; 5.0%; 7.5% and 10.0% V/V was poured gently into the petri dish immersing the eggs. Each concentration was previously prepared by dilution of active compound in a 2.0% W/V aqueous lecithin solution pre-warmed to 20°C. The mixture was sonicated for two minutes. After an exposure time of 1 minute, the test solution was carefully poured off and the eggs recovered individually to a 7ml polythene container in which a filter paper was saturated with pig's liver washings. […] Eggs following treatment were incubated at 25°C, rh 70±2% with a photoperiod of 8 hours duration. Hatching typically occurred within 12 hours of treatment.
Each concentration was replicated twice; controls were treated using only lecithin solution. The whole experiment was repeated using two further exposure times of 30 minutes and 90 minutes respectively.
The data were analysed using fitted curve graphical analysis. […] The data gathered from the experiment with an exposure time of 1 minute was also expressed using the probit transformation.
Fitted curves were used to calculate the concentration required to kill 50% of the eggs, (LC50) using the data obtained after immersing the eggs in solutions ranging from 1.0% to 10.0% V/V. The median lethal concentrations, (LC50) and LC95 concentrations are shown in Table 4 below:- Table 4

[1] = Lethal Concentrations at 1 minute
[2] = Lethal Concentrations at 30 minutes

For CCOC(=O)/C=C/c1ccccc1 [trans-cinnamic acid ethyl ester], which LDSO (Mouse) is on record?
Its LDSO is 4000 mg/kg.

What about the “% mortality” value (Acarus siro; Concentration 10-1 (dilution in ethanol)) of the same molecule?
Its value is 100.00%.

And the “% mortality” value (Acarus siro; Concentration 10-2 (dilution in ethanol))?
The value was 100.00%.

What about the “% mortality” value (Acarus siro; Concentration 10-3 (dilution in ethanol)) of the same molecule?
The value was 98.40%.

What about the “% mortality” value (Acarus siro; Concentration 10-4 (dilution in ethanol)) of the same molecule?
Its value is 86.00%.

And the “time to 100% mortality” value (Acarus siro; undiluted dose, approximately)?
Its value is “less than 15 minutes”.

And the LC50 (eggs of L.sericata; [1])?
Its LC50 is “LC50 2.76%”.

What about the LC95 (eggs of L.sericata; [1]) of the same molecule?
Its LC95 is “LC95>7.50%”.

And the LC50 (eggs of L.sericata; [2])?
Its LC50 is “LC50 1.78%”.

And the LC95 (eggs of L.sericata; [2])?
Its LC95 is “LC95>5.00%”.

And the LC50 (eggs of L.sericata; Lethal Concentrations at 90 minutes)?
The LC50 was “LC50 0.36%”.
